Source: patent publication US20200017490A1, “Novel Mesoionic Insecticidal Compound” (Nippon Kayaku Kabushiki Kaisha, priority 2016, published 2020)

Assays:
Experiment in all cases: whole plant or invertebrate
Type in all cases: in vivo
[1] = system: Brown Planthopper (Nilaparvata lugens); settings: foliar, 120 h, rice seedling foliage dipping, third instar larvae, 5 days after the treatment, 25° C.
Description: Biological Test Example 3: Test (Foliage Dipping) for Controlling Brown Planthopper (Nilaparvata lugens)
Ten sampled rice seedlings were dipped in the chemical solution of the test compounds diluted with water to 200 ppm in an amount of 20 mL and air-dried. After air-drying, the rice seedlings held with urethane in a glass cylinder having an inner diameter of 4.5 cm and a length of 14 cm were set up in a plastic cup containing 40 mL of water. Larvae of brown planthoppers in the third instar larva were released in the glass cylinder. The cylinder was covered with a lid of medicine paper and kept in a chamber at a constant temperature of 25° C. for rearing.

[2] = system: Cotton Aphid (Aphis gossypii); settings: 120 h, foliar spraying on cucumber leaf, cotton aphid offspring, 5 days after the treatment, 25° C.
Description: Biological Test Example 1: Test (Foliar Spraying) for Controlling Cotton Aphid (Aphis gossypii)
A cucumber leaf cut to a diameter of 3.5 cm was placed on cotton wool moistened with water. Two adult cotton aphids were released there for offspring for 24 hours and the adult insects were then removed. The diluent of the test compounds diluted with water to 200 ppm in an amount of 2 mL was sprayed onto the cucumber leaves with a spray tower. After air-drying, the sample with cotton wool was placed in a plastic cup, which was covered with a lid and kept in a chamber at a constant temperature of 25° C. for rearing.

[3] = system: Diamondback Moth (Plutella xylostella); settings: foliar, 120 h, cabbage leaf dipping, third instar larvae, 5 days after the treatment, 25° C.
Description: Biological Test Example 2: Test (Foliage Dipping) for Controlling Diamondback Moth (Plutella xylostella)
A cabbage leaf cut to a diameter of 5.0 cm was dipped in the diluent of the test compounds diluted with water to 200 ppm in an amount of 20 mL and air-dried. After air-drying, the cabbage leaf was placed in a plastic cup, and 10 larvae of diamondback moths in the third instar larva were released there. The cup was covered with a lid and kept in a chamber at a constant temperature of 25° C. for rearing.

[4] = system: Brown Planthopper (Nilaparvata lugens); settings: rice seedling root dipping, third instar larvae released after 2 days, 5 days after the treatment, 25° C.
Description: Biological Test Example 4: Test (Root Dipping) for Controlling Brown Planthopper (Nilaparvata lugens)
Ten sampled rice seedlings held with urethane in a glass cylinder having an inner diameter of 4.5 cm and a length of 14 cm were set up in a plastic cup containing 40 mL of chemical solution diluted with water to 0.8 ppm. After 2 days, 10 larvae of brown planthoppers in the third instar larva were released in the glass cylinder. The glass cylinder was covered with a lid of medicine paper and kept in a chamber at a constant temperature of 25° C. for rearing.

[5] = system: Southern Yellow thrips (Thrips palmi); settings: 72 h, foliar spraying on cucumber leaf, first instar larvae, 3 days after the treatment, 25° C.
Description: Biological Test Example 5: Test (Foliar Spraying) for Controlling Southern Yellow thrips (Thrips palmi)
A cucumber leaf cut to a diameter of 1.5 cm was placed on cotton wool moistened with water. The diluent of the test compounds diluted with water to 200 ppm in an amount of 2 mL was sprayed onto the cucumber leaves with a spray tower. After air-drying, 5 larvae of southern yellow thrips in the first instar larva were released there and placed with cotton wool in a plastic cup, which was covered with a lid and kept in a chamber at a constant temperature of 25° C. for rearing.

## CC(C)(C)[S+]([O-])N=CCC[n+]1c([O-])c(-c2cccc(C(F)(F)F)c2)c(=O)n2ccccc21 (stereo not shown) [Compound K-3]
[1]
  mortality at 200 ppm: ≥ 80%

## COc1cccc(-c2c(O)[n+](CCC=N[N+](C)(C)C)c3ccccn3c2=O)c1 [Compound K-1]
[1]
  mortality at 200 ppm: ≥ 80%

## CCOC(C)ON=CCC[n+]1c([O-])c(CC=C(C)C)c(=O)n2ccccc21 (stereo not shown) [Compound K-8]
[1]
  mortality at 200 ppm: ≥ 80%

## CC(C)=CCON=CCC[n+]1c([O-])c(CC=C(C)C)c(=O)n2ccccc21 [Compound K-7]
[1]
  mortality at 200 ppm: ≥ 80%

## C=CCc1c([O-])[n+](CCC=NOC(C)OCC)c2ccccn2c1=O (stereo not shown) [Compound K-9]
[1]
  mortality at 200 ppm: ≥ 80%

## O=c1c(-c2cccc(C(F)(F)F)c2)c([O-])[n+](CCC=NOc2ccc(Cl)nc2)c2ccccn12 [Compound K-2]
[2]
  mortality at 200 ppm: ≥ 80%
[3]
  mortality at 200 ppm: ≥ 80%
[4]
  mortality at 0.8 ppm: ≥ 80%
[5]
  mortality at 200 ppm: ≥ 80%

## O=c1c(-c2ccccc2)c([O-])[n+](CCC=NOC2COCCO2)c2ccccn12 (stereo not shown) [Compound K-10]
[1]
  mortality at 200 ppm: ≥ 80%
